According to patent US10548894B2, “Combination therapy” (Array BioPharma Inc., priority 2013, dated 2020):

Experiments:
[1] = test system: HMEX1906 primary melanoma model (HMEX1906-R5); assay: Efficacy in HMEX1906-R5 primary melanoma model resistant to Compound of Formula (I); type: in vivo; conditions: PO; Compound C 250 mg/kg qd×21; Compound of Formula (I) 5 mg/kg bid×21
Procedure: Objective: To evaluate the efficacy of the combination of the Compound of Formula (I) and the CDK 4 inhibitor Compound C in the HMEX1906 primary melanoma model that is grown in the presence of and is resistant to 5 mg/kg the Compound of Formula (I) (HMEX1906-R5)
Drug formulation: Compound C is formulated in 0.5% MC/0.5% Tween80 and the Compound of Formula (I) is formulated in 20% PEG300/3% ETPGS.
Tumors are chopped/minced into cell line like suspension (tumors homogenized). 7 mL of matrigel added and 1.5 mL of HBSS. Suspension warmed in palm until Matrigel is thick and implanted with a 18G needle s.c right flank of female nude mice.
The mice were assigned to the following groups at 18 days post implant with an average tumor volume of 266 mm^3 and average body weight of 25 grams.
Groups: 10 mice/group, route PO, dose volume 0.2 mL
Group 1: Vehicle, 0 mg/kg bid×14
Group 2: Compound C, 250 mg/kg qd×21
Group 3: Compound of Formula (I), 5 mg/kg bid×21
Group 4: Compound C 250 mg/kg qd×21+Compound of Formula (I) 5 mg/kg bid×21

[2] = test system: MAPK and PIK3C signaling in SK-MEL-5 cells; assay: Western analysis of phosphorylated MEK1/2, ERK1/2 and AKT; type: cell-based
Procedure: (§1) FIG. 4—The effect on signaling of combining the Compound of Formula (I) with the FGFR inhibitor Compound H and the FGFR ligand FGF2 in two BRAFV600E mutant melanoma-derived cell lines in vitro. Shown is western analysis of both phosphorylated and total AKT, ERK1/2, and MEK1/2 proteins isolated from (A) […] and (B) SK-MEL-5 cells following treatment with the Compound of Formula (I) (100 nM), FGF2 (100 ng/ml), and Compound H (1 uM). Cells were treated for 2 and 24 hours with agents singly and in combination as discussed in Example 5.
(§2) For Western analysis, cells were plated in 6-well (Costar, catalog number 3506) plates at a density of 5×10^5 cells per well in 2.0 ml of complete culture medium. Twelve to 24 hrs after plating, cells were treated with the various compounds, and in all experiments the Compound of Formula (I), Compound H, and FGF2 were used at final concentrations of 100 nM, 1.0 uM, and 100 ng/ml, respectively. Cells were harvested 2, and 24 hrs following the addition of compound in freshly prepared cell lysis buffer (Cell Signaling Technology Catalog number 9803); supplemented with both phosphatase (PhosStop, Roche Catalog number 04906845001) and protease inhibitors (Roche, catalog number 11697498001). Proteins from cell lysates were separated by electrophoresis though a NuPAGE 4-12% Bis-Tis midi gel (Novex, catalog number WG1402BX10), transferred to nitrocellulose membranes, which were subsequently incubated with antibodies from Cell Signaling Technology (Danvers, Mass., USA) recognizing p-AKT (S473, Catalog number 4058), total AKT (Catalog number 2920), p-ERK1/2 (T202/Y204, catalog number 9101), total ERK1/2 (catalog number 9107), p-MEK1/2 (S217/221, catalog number 9121) and β-actin (Ambion, catalog number AM4302). Western blots were visualized following incubation with IRDye 680RD Goat anti-Rabbit IgG (Li-Cor, Catalog number 926-68071) and IRDye 800 CW Goat anti-Mouse IgG (Li-Cor, Catalog number 926-32210) and scanning with an Odyssey Infrared Imager System (Li-Cor, Lincoln, Nebr., USA).
(§3) To investigate whether either restored MAPK or activated PIK3C signaling might underlie FGF2-mediated rescue the effects of FGF2 on MAPK and PIK3C signaling were examined via western-blot analysis of phosphorylated MEK1/2 (MAP2K1/2), ERK1/2 (MAPK1/2) and AKT1/2/3.

[3] = test system: MAPK and PIK3C signaling in COLO 741 cells; assay: as above; type: cell-based; conditions: for Phosphorylated levels of AKT: 100 nM
Procedure: as §1, §2, §3

[4] = test system: WM-266-4 cells expressing mutant NRASQ61K; assay: ATP-based CTG (Cell Titer Glo) cell viability assay, 72 h; conditions: Homo sapiens, WM-266-4 NRASQ61K, single agent
Procedure: Compound stocks are prepared in DMSO at a final concentration of 10 mM.
A-375 and WM-266-4 cells were purchased from American Type Culture Collection (ATCC). The A-375 cells were cultured in DMEM medium (ATCC) and the WM-266-4 cells were cultured in EMEM medium (ATCC) both supplemented with 10% fetal bovine serum (Gibco) and incubated at 37° C./5% CO2. The cell lines engineered to express commonly occurring alleles indicative of resistance were acquired from Novartis-Emeryville. These resistant models include, A-375 cells expressing mutant MEK1P124L, truncated p61-BRAFV600E, or mutant NRASQ61K, and WM-266-4 cells expressing mutant MEK1C121S, truncated p61-BRAFV600E, or mutant NRASQ61K. These cells were cultured in the appropriate parental medium with selection marker G418 and in the presence of 5 uM LFE158 (MEK mutants) or LIH720 (truncated p61-BRAFV600E).
For screening, cells were seeded in 80 ul of medium in 384-well plates (Thermo Scientific, cat#4332) at 500 (A-375) or 750 (WM-266-4) cell densities per well using a MultiDrop Combi (Thermo-Fisher) with an 8-channel standard cassette. To promote an even distribution of cells across the entire well, cells were briefly centrifuged at 1000 RPM and incubated at room temperature 30 minutes. All plates were incubated at 37° C., 5% CO2 for 24 h prior to compound addition. Compound stock was freshly prepared in the appropriate culture medium, and added using a PAA robot equipped with a 200n1 pin tool. In a minimum of three replicate wells, single agent and combination effects after 72 hours, were assessed by both quantification of cellular ATP levels via Cell Titer Glo (Promega) according to the manufacturer's protocol and by microscopy imaging. For imaging, cells were fixed to the plates and permeabilized with a solution of 10% PFA, 0.3% TX-100 in PBS via a WellMate dispenser with controlled dispensing speeds. Cell nuclei were stained with Hoechst 33342 (H3570, Invitrogen), and all necessary washing steps were performed by a BioTek washer. […]

How did the “Mean change of body weight” value [1] turn out when `COC(=O)N[C@@H](C)CNc1nccc(-c2cn(C(C)C)nc2-c2cc(Cl)cc(NS(C)(=O)=O)c2F)n1` [Compound of Formula (I)] was run?
Its value is 3.5 ± 1.1 % ± SEM.

What about the “Mean change of tumor volume” value [1] of the same molecule?
The value was 807 ± 106 mm3 ± SEM.

And the “Mean change of tumor volume vs control (T/C)” value [1]?
Its value is 39%.

And the “Survival (Survivors/Total)” value [1]?
The value was 10/10.

What about the “MAPK signaling (phosphorylated MEK and ERK levels)” value ([2]; SK-MEL-5, 2 and 24 hours, no FGF2, Formula (I) 100 nM, Compound H 1.0 uM) of the same molecule?
The value was “marked suppression of MAPK signaling”.

And the “Phosphorylated levels of AKT” value ([2]; SK-MEL-5, 2 hours, 100 nM)?
The value was “unaffected”.

What about the “levels of phosphorylated MEK and ERK” value ([2]; SK-MEL-5, with FGF2 100 ng/ml, 24 hrs) of the same molecule?
The value was “largely, although not completely, restored”.

What about the “changes in signaling relative to Compound of Formula (I) alone” value ([2]; SK-MEL-5, with FGF2 100 ng/ml, two hours) of the same molecule?
The value was “minimal changes”.

And the “MAPK signaling (phosphorylated MEK and ERK levels)” value ([3]; COLO 741, 2 and 24 hours, no FGF2, Formula (I) 100 nM, Compound H 1.0 uM)?
The value was “marked suppression of MAPK signaling”.

And the “Phosphorylated levels of AKT” value ([3]; COLO 741, 2 hours)?
Its value is “unaffected”.

What about the “Phosphorylated levels of AKT” value ([3]; COLO 741, 24 hrs) of the same molecule?
The value was “modest decreases”.

And the “levels of phosphorylated MEK and ERK” value ([3]; COLO 741, with FGF2 100 ng/ml, 24 hrs)?
The value was “largely, although not completely, restored”.

What about the “changes in signaling relative to Compound of Formula (I) alone” value ([3]; COLO 741, with FGF2 100 ng/ml, two hours) of the same molecule?
The value was “minimal changes”.

And the IC50 [4]?
Its IC50 is 1.12 µM.
